Assay results: patent US8252337B2, “Charged mesoporous silica nanoparticle-based drug delivery system for controlled release and enhanced bioavailability” (National Health Research Institutes, priority 2008, dated 2012)

Assay: Saturated aqueous sulfasalazine solution
Assay type: physicochemical
Conditions: in H2O
Experimental: Sulfasalazine-Loaded MSN-TA Samples: A saturated aqueous sulfasalazine solution was prepared by dissolving 0.5 g of sulfasalazine in 1 L of H2O, stirred for 6 h, and filtered through a […] cellulose acetate membrane to remove the residual solids. […] Sulfasalazine was adsorbed onto MSN-TA samples by adding 10 mg of MSN-TA samples into 10 mL of the above saturated sulfasalazine solution. The mixture was stirred at 800 rpm for 4 h. The particles were then washed with deionized water and centrifuged for 20 min at 12 000 rpm. The supernatant was analyzed with a UV-Vis spectrometer. The amount of Sulfasalazine adsorbed onto nanoparticles was determined by measuring the decrease in absorption at 360 nm. The loading percentage of sulfasalazine onto MSN-TA-4 was about 1.7%.

O=C(O)c1cc(/N=N/c2ccc(S(=O)(=O)Nc3ccccn3)cc2)ccc1O [sulfasalazine]
pH of saturated sulfasalazine solution: 5.4
